Results taken from patent US20230026611A1, “ARYL HETEROCYCLIC COMPOUNDS AS Kv1.3 POTASSIUM SHAKER CHANNEL BLOCKERS” (D. E. Shaw Research, LLC, priority 2019, published 2023).
pIC50: −log10 of the molar value.

Key:
Kv1.3 potassium channel = molecular target: T1, Kv1.3 potassium channel (Homo sapiens, UniProt P22001); experiment: Kv1.3 potassium channel blocker activity, automated whole-cell patch clamp (Patchliner) in CHO-K1 cells stably expressing Kv1.3; assay type: cell-based; conditions: CHO-K1 cells stably expressing Kv1.3; patch clamp, current inhibition; read-out: Kv1.3 IC50
T1 construct: expressed in transfected cells
Method in brief: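 CHO-K1 cells stably expressing Kv1.3 were recorded by whole-cell patch clamp, with 100 ms depolarizing pulses from −90 mV holding to +40 mV at 0.1 Hz and 10-second breaks between pulse trains. P/4 online leak subtraction was applied. Compound incubation before the next train was ≤10 seconds, and peak current inhibition was read during equilibration.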

hERG channel = hERG channel (Homo sapiens, UniProt Q12809); experiment: hERG electrophysiology, automated whole-cell patch clamp (Patchliner) in CHO-K1 cells stably expressing hERG
Sequence of hERG channel (Q12809 whole entry): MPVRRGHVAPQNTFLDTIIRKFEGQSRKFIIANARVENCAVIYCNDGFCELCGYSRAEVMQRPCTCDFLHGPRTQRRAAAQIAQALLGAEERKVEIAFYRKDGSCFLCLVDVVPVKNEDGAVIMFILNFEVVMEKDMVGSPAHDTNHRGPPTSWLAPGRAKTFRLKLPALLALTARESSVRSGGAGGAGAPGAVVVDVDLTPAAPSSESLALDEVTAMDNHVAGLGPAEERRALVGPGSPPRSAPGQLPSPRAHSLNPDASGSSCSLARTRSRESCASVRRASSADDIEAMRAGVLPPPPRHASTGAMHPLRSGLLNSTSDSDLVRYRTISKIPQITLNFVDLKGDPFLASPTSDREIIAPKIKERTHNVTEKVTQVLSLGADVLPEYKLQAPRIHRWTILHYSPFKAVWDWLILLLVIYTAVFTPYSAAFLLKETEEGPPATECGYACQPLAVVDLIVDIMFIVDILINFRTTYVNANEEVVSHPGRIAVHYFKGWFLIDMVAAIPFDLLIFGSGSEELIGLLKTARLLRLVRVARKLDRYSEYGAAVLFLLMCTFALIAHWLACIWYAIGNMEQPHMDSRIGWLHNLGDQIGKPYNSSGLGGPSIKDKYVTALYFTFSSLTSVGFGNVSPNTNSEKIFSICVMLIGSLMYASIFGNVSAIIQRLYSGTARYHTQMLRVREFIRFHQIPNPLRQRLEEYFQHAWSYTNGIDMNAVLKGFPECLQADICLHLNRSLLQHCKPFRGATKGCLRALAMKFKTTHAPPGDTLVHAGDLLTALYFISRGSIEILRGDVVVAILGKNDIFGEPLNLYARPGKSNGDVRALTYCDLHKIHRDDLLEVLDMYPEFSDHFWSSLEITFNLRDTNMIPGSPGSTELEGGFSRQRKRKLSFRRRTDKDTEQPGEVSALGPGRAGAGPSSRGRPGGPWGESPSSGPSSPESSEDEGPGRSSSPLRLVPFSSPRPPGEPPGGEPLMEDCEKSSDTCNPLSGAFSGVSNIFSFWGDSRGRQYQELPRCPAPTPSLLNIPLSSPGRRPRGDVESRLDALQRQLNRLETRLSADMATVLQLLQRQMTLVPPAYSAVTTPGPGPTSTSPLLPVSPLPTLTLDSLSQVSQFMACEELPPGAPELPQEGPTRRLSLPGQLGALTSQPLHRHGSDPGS
Description: Evaluation of hERG Activities
This assay is used to evaluate the disclosed compounds's inhibition activities against the hERG channel.
CHO-K1 cells stably expressing hERG were grown in Ham's F-12 Medium with glutamine containing 10% heat-inactivated FBS, 1% penicillin/streptomycin, hygromycin (100 μg/ml) and G418 (100 μg/ml). Cells were grown in culture flasks at 37° C. in a 5% CO2-humidified incubator.
The cells were bathed in an extracellular solution containing 140 mM NaCl, 4 mM KCl, 2 mM CaCl2), 1 mM MgCl2, 5 mM Glucose, 10 mM HEPES; pH adjusted to 7.4 with NaOH; 295-305 mOsm. The internal solution contained 50 mM KCl, 10 mM NaCl, 60 mM KF, 20 mM EGTA, 10 mM HEPES; pH adjusted to 7.2 with KOH; 285 mOsm. All compounds were dissolved in DMSO at 30 mM. Compound stock solutions were freshly diluted with external solution to concentrations of 30 nM, 100 nM, 300 nM, 1 μM, 3 μM, 10 μM, 30 μM and 100 μM. The highest content of DMSO (0.3%) was present in 100 μM.
The voltage protocol (see Table B) was designed to simulate voltage changes during a cardiac action potential with a 300 ms depolarization to +20 mV (analogous to the plateau phase of the cardiac action potential), a repolarization for 300 ms to −50 mV (inducing a tail current) and a final step to the holding potential of −80 mV. The pulse frequency was 0.3 Hz. Control (compound-free) and compound pulse trains for each compound concentration applied contained 70 pulses.
Whole-cell current recordings and compound application were enabled by means of an automated patch clamp platform Patchliner (Nanion). EPC 10 patch clamp amplifier (HEKA) along with Patchmaster software (HEKA Elektronik Dr. Schulze GmbH) was used for data acquisition. Data were sampled at 10 kHz without filtering. Increasing compound concentrations were applied consecutively to the same cell without washouts in between.
AUC and PEAK values were obtained with Patchmaster (HEKA Elektronik Dr. Schulze GmbH). To determine IC50 the last single pulse in the pulse train corresponding to a given compound concentration was used. Obtained AUC and PEAK values in the presence of compound were normalized to control values in the absence of compound. Using Origin (OridinLab), IC50 was derived from data fit to Hill equation: Icompound/control=(100−A)/(1+([compound]/IC50)nH)+A, where IC50 is the concentration at which current inhibition is half-maximal, [compound] is the applied compound concentration, A is the fraction of current that is not blocked and nH is the Hill coefficient.

T1 sequence (P22001 whole entry): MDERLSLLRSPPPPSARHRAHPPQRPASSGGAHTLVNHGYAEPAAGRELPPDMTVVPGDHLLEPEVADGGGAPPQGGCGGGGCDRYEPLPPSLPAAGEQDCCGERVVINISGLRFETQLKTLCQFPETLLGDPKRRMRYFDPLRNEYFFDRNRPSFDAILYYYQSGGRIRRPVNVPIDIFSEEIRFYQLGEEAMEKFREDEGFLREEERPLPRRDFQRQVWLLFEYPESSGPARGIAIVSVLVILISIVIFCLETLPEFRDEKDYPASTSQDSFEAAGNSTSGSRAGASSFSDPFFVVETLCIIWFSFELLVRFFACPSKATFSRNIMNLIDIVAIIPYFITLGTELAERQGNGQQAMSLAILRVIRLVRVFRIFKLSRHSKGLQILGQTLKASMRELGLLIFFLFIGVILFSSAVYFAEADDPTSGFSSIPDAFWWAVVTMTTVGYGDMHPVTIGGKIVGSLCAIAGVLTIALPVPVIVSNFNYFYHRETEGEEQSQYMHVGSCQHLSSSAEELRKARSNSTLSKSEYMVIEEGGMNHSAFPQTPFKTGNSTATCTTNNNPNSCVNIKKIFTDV

Row | pIC50 (Kv1.3 potassium channel) | SMILES | pIC50 (hERG channel)
1 | > 6.00 | CS(=O)(=O)NCC1CC(c2c(O)ccc(Cl)c2Cl)CCN1 [Compound 100, (2R,4S)-rel-N-[[4-(2,3-dichloro-6-hydroxyphenyl)piperidin-2-yl]methyl]methanesulfonamide] | < 4.52
2 | > 6.00 | NC(=O)CC1CC(c2c(O)ccc(Cl)c2Cl)CCN1 [Compound 101, 2-[(2R,4S)-rel-4-(2,3-dichloro-6-hydroxyphenyl)piperidin-2-yl]acetamide] | < 4.52
3 | > 6.00 | NC(=O)NCC1CC(c2c(O)ccc(Cl)c2Cl)CCN1 [Compound 102, (2R,4S)-rel-[4-(2,3-dichloro-6-hydroxyphenyl)piperidin-2-yl]methylurea] | < 4.52
4 | > 6.00 | O=C(NCC1CC(c2c(O)ccc(Cl)c2Cl)CCN1)C1COC1 [Compound 104, (2R,4S)-rel-N-[[4-(2,3-dichloro-6-hydroxyphenyl)piperidin-2-yl]methyl]oxetane-3-carboxamide] | < 4.52
5 | > 6.00 | O=C(NCC1CC(c2c(O)ccc(Cl)c2Cl)CCN1)C1CC1 [Compound 106, (2R,4S)-rel-N-[[4-(2,3-dichloro-6-hydroxyphenyl)piperidin-2-yl]methyl]cyclopropane carboxamide] | < 4.52
6 | > 6.00 | O=S1(=O)CCCN1CC1CC(c2c(O)ccc(Cl)c2Cl)CCN1 (stereo not shown) [Compound 112, 2-[[4-(2,3-dichloro-6-hydroxyphenyl)piperidin-2-yl]methyl]-1,2-thiazolidine-1,1-dione] | > 4.52
7 | > 5.00 | O=C(NC1CNC1)C1CCC(c2c(O)ccc(Cl)c2Cl)NC1 (stereo not shown) [Compound 125, N-(azetidin-3-yl)-6-(2,3-dichloro-6-hydroxyphenyl)piperidine-3-carboxamide] | < 4.00
8 | > 5.00 | O=C(NC1CNC1)C1CCNC(c2c(O)ccc(Cl)c2Cl)C1 (stereo not shown) [Compound 126, N-(azetidin-3-yl)-2-(2,3-dichloro-6-hydroxyphenyl)piperidine-4-carboxamide] | < 4.52

More lines, now with the values behind:

Row | SMILES | pIC50 (Kv1.3 potassium channel) | pIC50 (hERG channel)
9 | O=C(CO)N1CCC(c2c(O)cc(Cl)c(Cl)c2Cl)CC1 [Compound 93, 2-hydroxy-1-[4-(2,3,4-trichloro-6-hydroxyphenyl)piperidin-1-yl]ethan-1-one] | > 6.00 | > 4.52
10 | O=S(=O)(NCC1CC(c2c(O)ccc(Cl)c2Cl)CCN1)c1ccccc1 [Compound 94, N-(2R,4S)-rel-[[4-(2,3-dichloro-6-hydroxyphenyl)piperidin-2-yl]methyl]benzenesulfonamide] | > 6.00 | > 4.52
11 | NCC(=O)N1CCC(c2c(O)cc(Cl)c(Cl)c2Cl)CC1 [Compound 98, 2-amino-1-[4-(2,3,4-trichloro-6-hydroxyphenyl)piperidin-1-yl]ethan-1-one] | > 6.00 | > 4.52
12 | Nc1nnc(C2CC(c3c(O)ccc(Cl)c3Cl)CCN2)o1 [Compound 99, (2R,4S)-rel-2-(2-(5-amino-1,3,4-oxadiazol-2-yl)piperidin-4-yl)-3,4-dichlorophenol] | > 6.00 | < 4.52
13 | Oc1ccc(Cl)c(Cl)c1C1CCNC(c2cn[nH]c2)C1 (stereo not shown) [Compound 116, 3,4-dichloro-2-[2-(1H-pyrazol-4-yl)piperidin-4-yl]phenol] | > 6.00 | < 4.52
14 | O=C(NC1CNC1)C1CCCC(c2c(O)ccc(Cl)c2Cl)N1 (stereo not shown) [Compound 127, N-(azetidin-3-yl)-6-(2,3-dichloro-6-hydroxyphenyl)piperidine-2-carboxamide] | > 5.00 | < 4.52
